# From patent publication US8889411B2, “Modulation of stem and progenitor cell differentiation, assays, and uses thereof” (Anthrogenesis Corporation, priority 2002, dated 2014)
# How the values were obtained:
# [1] = tested on: Cord blood CD34+ hematopoietic progenitor cells; test: Colony forming unit (CFU) generation from cord blood CD34+ cells; type: cell-based, human; details: IL-3, G-CSF, kit-ligand, vs DMSO
# Method: FIG. 1. Bar graph indicating results of culturing cord blood CD34+ cells in the presence of Thalidomide (THD), ACTIMID™, and REVIMID™ at concentrations of 1 μg/ml and 10 μg/ml. An equal volume of DMSO was used as a negative control. Hematopoietic colonies of burst forming units-erythroid (BFU-E), colony forming units-erythroid (CFU-E), colony forming units-granulocyte macrophage (CFU-GM) and total numbers of colonies (CFU-Total) were scored under the light microscope at day 14 of culture. Y-axis: numbers of colonies. See Section 6.1 for details.
# Cord blood CD34+ hematopoietic progenitor cells were plated in 96 well cultivation dishes at a density of 1000 cells per well in IMDM supplemented with 20% fetal calf serum and cytokines (IL-3, G-CSF and kit-ligand (R&D Systems, Inc.) The cells were exposed to Thalidomide (Thal), ACTIMID™ and REVIMID™, or DMSO (a control compound), and allowed to culture for 6 days. […] After culturing, cells were stained and sorted with a fluorescence activated. cell sorter (FACS). 400 μL of stained cells were harvested and diluted to 1.0 ml with 1% fetal calf serum in phosphate buffered saline (PBS). Cells were counted to determine the effect of modulation of stem cell differentiation.
# [2] = tested on: Human Cord Blood CD34+ Cells; test: FACS analysis of proliferation and differentiation of cord blood CD34+ cells cultured with IL3, G-CSF and Kit-ligand; type: cell-based; details: for CD11b+ Cell Population / CD34+CD38+ Cell Population / CD34+CD38− Cell Population: 7 days
# Method: CB CD34+ cells were initiated at 4×10^4 cells/ml in a 24-well plate in 20% FCS IMDM (fetal calf serum/Iscove's Modified Dulbecco's Medium) supplemented with cytokines (1 L3, GCSF and Kit-ligand) (R&D Systems, Inc.). Thalidomide (Thal), ACTIMID™ or REVIMID™ were included in the culture at three different concentrations: 5 μg/ml, 1 μg/ml and 0.3 μg/ml. The same volumes of DMSO were used as controls. A negative control without, any compound was also used (indicated by “none” in FIGS. 3-7). Cells were cultured at 37° C. and 5% CO2 in a humidified incubator for 7 days. Cells were then harvested from each well.
# The total cell number from each well was determined by counting in a CELL-DYN® 1700 (Abbott Diagnostics) and the expression of CXCR4, CD45, CD34, CD38, CD 1 lb and Gly-A expression was analyzed by FACS (fluorescence-activated cell sorting) staining (FIGS. 3-7).
# CB cells from two different donors (CB2276 and CB2417) were cultured, assayed and analyzed separately (Table 1).
# [3] = tested on: Human Cord Blood MNC Cells; test: FACS analysis of cryopreserved and thawed cord blood MNCs after 1 week of culture with cytokines; type: cell-based; details: 5 μg in 1.7 μl DMSO, average +/− SD of three wells
# Method: Cord blood MNCs that had been cryopreserved and thawed using standard methods were isolated by standard Ficoll separation method and cultured in 24 well-plate at 0.5×10^6 cells/ml in 20% FCS-IMDM with cytokines (1L6, KL and G-CSF 10 ng/ml each) in triplicates. The experimental groups were None (cytokines only), DMSO (1.7 μl), ACTIMID™ (5.0 μg in 1.7 μl DMSO), REVIMID™ (5 μg in 1.7 μl DMSO). The cultured cells were harvested and analyzed by FACS staining after 1 week of culture. The data are expressed as an average +/− SD from three independent wells.
# [4] = tested on: Purified human cord blood CD34+ cells; test: Monocyte production: CD34/CD14 staining of cord blood CD34+ cells cultured 14 days with cytokines; type: cell-based
# Method: Purified human cord blood CD34+ cells (greater than 90% CD34+) were cultured in 20% FCS IMDM medium supplemented with cytokines (IL3, IL6, G-CSF, KL and Epo) at 4×10^4 cells/ml for 14 days at 37° C. in a humidified 5% CO2 incubator. The experimental groups consisted of a group in which (i) no DMSO or chemical compounds were added (“None”), (ii) DMSO only, (iii) Thalidomide dissolved in DMSO, (iv) ACTIMID™ dissolved in DMSO, and (v) REVIMID™ dissolved in DMSO. Aliquots of cells were harvested and stained with CD34-PE conjugated monoclonal antibody and CD14-FITC conjugated monoclonal antibody.
# [5] = tested on: human cord blood CD45+ cells; test: Flow cytograms of cord blood CD45+ cells cultured 14 days with IL3, IL6, G-CSF, Epo and KL; type: cell-based; details: 5 μg/ml, FIG. 10
# Method: (§1) FIGS. 9(A-F). Flow cytograms. […] Cord blood CD45+ cells were cultured for 14 days with cytokines IL3, IL6, G-CSF, Epo and KL. Percentages indicated on each cytogram indicate the percentage of the cell population expressing a particular combination of markers. A. Control, immunoglobulin (Ig). B. Control, no compound added. C. DMSO (5 μg/ml). D. Thal (5 μg/ml). E. ACTIMID™ (5 μg/ml). F. REVIMID™ (5 μg/ml). X-axis: relative intensity of CD38 (FL1-H) staining. Y-axis: relative intensity of CD19 (FL2-H) staining. See Section 6.3 for details.
# as §1, with “10(A-F).” for “9(A-F).”, “CXCR5” for “CD38”, “CD34” for “CD19”
smiles,measurement,setting,value
"Nc1cccc2c1CN(C1CCC(=O)NC1=O)C2=O (stereo not drawn) [REVIMID™, 3-(4-amino-1-oxo-1,3-dihydro-isoindol-2-yl)-piperidine-2,6-dione]",generation of erythropoietic colonies (BFU-E and CFU-E),[1],suppress
same,generation of leukocyte and platelet forming colonies (CFU-GM),[1],augmenting
same,total colony forming unit (CFU-Total) production,[1],enhancing
same,expression of CXCR4,[2]; FACS analysis of surface proteins,inhibitory effect
same,yield of cells,"[2]; IL-3, KL and G-CSF, compared with the DMSO control",slightly higher number of cells
same,effect on the proliferation of CD34+ cells,"[2]; IL-3, KL and G-CSF, compared with the negative control (none)",do not have a significant effect
same,CD11b+ Cell Population,"[2]; donor CB2276, 0.3 μg/ml",13.3%
same,CD34+CD38+ Cell Population,"[2]; donor CB2276, 0.3 μg/ml",1.7
same,CD34+CD38− Cell Population,"[2]; donor CB2276, 0.3 μg/ml",9.8
same,CD11b+ Cell Population,"[2]; donor CB2276, 1 μg/ml",8.6%
same,CD34+CD38+ Cell Population,"[2]; donor CB2276, 1 μg/ml",1
same,CD34+CD38− Cell Population,"[2]; donor CB2276, 1 μg/ml",10.3
same,CD11b+ Cell Population,"[2]; donor CB2276, 5 μg/ml",4.8%
same,CD34+CD38+ Cell Population,"[2]; donor CB2276, 5 μg/ml",0.3
same,CD34+CD38− Cell Population,"[2]; donor CB2276, 5 μg/ml",4.0
same,CD11b+ Cell Population,"[2]; donor CB2417, 0.3 μg/ml",11.2%
same,CD34+CD38+ Cell Population,"[2]; donor CB2417, 0.3 μg/ml",0.9
same,CD34+CD38− Cell Population,"[2]; donor CB2417, 0.3 μg/ml",3.4
same,CD11b+ Cell Population,"[2]; donor CB2417, 1 μg/ml",8.2%
same,CD34+CD38+ Cell Population,"[2]; donor CB2417, 1 μg/ml",0.6
same,CD34+CD38− Cell Population,"[2]; donor CB2417, 1 μg/ml",3.8
same,CD11b+ Cell Population,"[2]; donor CB2417, 5 μg/ml",5.5%
same,CD34+CD38+ Cell Population,"[2]; donor CB2417, 5 μg/ml",0.3
same,CD34+CD38− Cell Population,"[2]; donor CB2417, 5 μg/ml",4.2
same,CD38 status of the majority of CD34+ and CD34− cells,[2]; treated cell populations,CD38−
same,level of CD11b expression by mean immunofluorescence (MIF),[2]; treated cells,decreased
same,CD34(%),[3],2.34 +/− 0.22%
same,CD34+CD38−(%),[3],0.80 +/− 0.29%
same,CXCR4+CD45+(%),[3],3.6 +/− 0.9%
same,CXCR4+CD45−(%),[3],3.28 +/− 0.89%
same,Total CD34+ cells,[3],7166 +/− 802
same,Total cells (1 × 10^6),[3],0.30 +/− 0 1 × 10^6
same,percentage of monocyte lineage cells,"[4]; 5 μg/ml, compared to control, FIG. 13",increase
same,percentage of CD34+ cells of the total cells,"[4]; 14 days, IL3, IL6, G-CSF, KL and Epo, compound dissolved in DMSO",7.1%
same,production of monocytes (CD14+ cells),"[4]; 14 days, relative to DMSO-treated group",overcome
same,repression of CXCR5 produced by exposure to DMSO,[5],overcomes the repression
